Entries after “also recorded” stand apart in the source; their conditions may differ. Where a name gives a salt, the structure may show the parent alone.
Legend:
INS-1 cells [1] = assay: Basal [Ca^2+]i in INS-1 cells by fura-2 fluorescence; assay type: cell-based, rat
Protocol: [Ca^2+]i was directly measured by the ratio of fluorescence excitations at Ca^2+-bound […], and then the ratio was converted to the calcium concentration. The bath solution contained […], 4 mM KCl, 2 mM CaCl2, and 2 mM MgCl2.
The effect of basal [Ca^2+]i on Ca^2+ influx was examined using the Ca^2+ dye indicator fura-2 and fluorescence measurements. Voltage-dependent Ca^2+ influx in a single cell was obtained by perfusion of an osmotically balanced solution containing 50 mM KCl into the recording chamber. […] The resting basal [Ca^2+]i in INS-1 cells was approximately 60-80 nM under the experimental conditions. [Ca^2+]i was determined by a standard curve obtained from a fura-2 calcium imaging kit (Molecule Probes). The empirical Kd obtained for calcium binding to fura-2 in the system was 296±20 nM. When basal [Ca^2+]i remains low, subsequent voltage stimulation with 50 KCl induces rapid and large calcium influx into the cell and these calcium changes are stereotyped upon repetitive stimulation when basal calcium is restored (FIG. 10). In this experiment, following the 50 KCl depolarization, the cell was repolarized by perfusion of the original 5 mM KCl solution. After repolarization, basal [Ca^2+]i slowly reset and then a second 50 KCl depolarization induced a similar [Ca^2+]i transient. When the basal calcium is not allowed to reset, a defect in the second voltage induced calcium transient occurs (FIG. 11). […] Therefore effectors of basal [Ca^2+]i will have important impact on the amount of calcium that can enter the cell.

β-TC3 cells [2] = assay: Cytokine-induced DNA fragmentation in β-TC3 cells; assay type: cell-based, mouse; details: β-TC3 cells (n=2); same results in NIT-1 cells (n=3)
T-type Ca^2+ current [3] = target: T-type Ca^2+ current (Rattus norvegicus, UniProt O54898); assay: Patch clamp recording of T-type Ca^2+ current in insulin-secreting (INS-1) cells; assay type: cell-based; details: for reversibility of the inhibition of T-type Ca^2+ current: small volume delivered near the cell
Sequence of T-type Ca^2+ current (Rattus norvegicus, UniProt O54898) (O54898 whole entry): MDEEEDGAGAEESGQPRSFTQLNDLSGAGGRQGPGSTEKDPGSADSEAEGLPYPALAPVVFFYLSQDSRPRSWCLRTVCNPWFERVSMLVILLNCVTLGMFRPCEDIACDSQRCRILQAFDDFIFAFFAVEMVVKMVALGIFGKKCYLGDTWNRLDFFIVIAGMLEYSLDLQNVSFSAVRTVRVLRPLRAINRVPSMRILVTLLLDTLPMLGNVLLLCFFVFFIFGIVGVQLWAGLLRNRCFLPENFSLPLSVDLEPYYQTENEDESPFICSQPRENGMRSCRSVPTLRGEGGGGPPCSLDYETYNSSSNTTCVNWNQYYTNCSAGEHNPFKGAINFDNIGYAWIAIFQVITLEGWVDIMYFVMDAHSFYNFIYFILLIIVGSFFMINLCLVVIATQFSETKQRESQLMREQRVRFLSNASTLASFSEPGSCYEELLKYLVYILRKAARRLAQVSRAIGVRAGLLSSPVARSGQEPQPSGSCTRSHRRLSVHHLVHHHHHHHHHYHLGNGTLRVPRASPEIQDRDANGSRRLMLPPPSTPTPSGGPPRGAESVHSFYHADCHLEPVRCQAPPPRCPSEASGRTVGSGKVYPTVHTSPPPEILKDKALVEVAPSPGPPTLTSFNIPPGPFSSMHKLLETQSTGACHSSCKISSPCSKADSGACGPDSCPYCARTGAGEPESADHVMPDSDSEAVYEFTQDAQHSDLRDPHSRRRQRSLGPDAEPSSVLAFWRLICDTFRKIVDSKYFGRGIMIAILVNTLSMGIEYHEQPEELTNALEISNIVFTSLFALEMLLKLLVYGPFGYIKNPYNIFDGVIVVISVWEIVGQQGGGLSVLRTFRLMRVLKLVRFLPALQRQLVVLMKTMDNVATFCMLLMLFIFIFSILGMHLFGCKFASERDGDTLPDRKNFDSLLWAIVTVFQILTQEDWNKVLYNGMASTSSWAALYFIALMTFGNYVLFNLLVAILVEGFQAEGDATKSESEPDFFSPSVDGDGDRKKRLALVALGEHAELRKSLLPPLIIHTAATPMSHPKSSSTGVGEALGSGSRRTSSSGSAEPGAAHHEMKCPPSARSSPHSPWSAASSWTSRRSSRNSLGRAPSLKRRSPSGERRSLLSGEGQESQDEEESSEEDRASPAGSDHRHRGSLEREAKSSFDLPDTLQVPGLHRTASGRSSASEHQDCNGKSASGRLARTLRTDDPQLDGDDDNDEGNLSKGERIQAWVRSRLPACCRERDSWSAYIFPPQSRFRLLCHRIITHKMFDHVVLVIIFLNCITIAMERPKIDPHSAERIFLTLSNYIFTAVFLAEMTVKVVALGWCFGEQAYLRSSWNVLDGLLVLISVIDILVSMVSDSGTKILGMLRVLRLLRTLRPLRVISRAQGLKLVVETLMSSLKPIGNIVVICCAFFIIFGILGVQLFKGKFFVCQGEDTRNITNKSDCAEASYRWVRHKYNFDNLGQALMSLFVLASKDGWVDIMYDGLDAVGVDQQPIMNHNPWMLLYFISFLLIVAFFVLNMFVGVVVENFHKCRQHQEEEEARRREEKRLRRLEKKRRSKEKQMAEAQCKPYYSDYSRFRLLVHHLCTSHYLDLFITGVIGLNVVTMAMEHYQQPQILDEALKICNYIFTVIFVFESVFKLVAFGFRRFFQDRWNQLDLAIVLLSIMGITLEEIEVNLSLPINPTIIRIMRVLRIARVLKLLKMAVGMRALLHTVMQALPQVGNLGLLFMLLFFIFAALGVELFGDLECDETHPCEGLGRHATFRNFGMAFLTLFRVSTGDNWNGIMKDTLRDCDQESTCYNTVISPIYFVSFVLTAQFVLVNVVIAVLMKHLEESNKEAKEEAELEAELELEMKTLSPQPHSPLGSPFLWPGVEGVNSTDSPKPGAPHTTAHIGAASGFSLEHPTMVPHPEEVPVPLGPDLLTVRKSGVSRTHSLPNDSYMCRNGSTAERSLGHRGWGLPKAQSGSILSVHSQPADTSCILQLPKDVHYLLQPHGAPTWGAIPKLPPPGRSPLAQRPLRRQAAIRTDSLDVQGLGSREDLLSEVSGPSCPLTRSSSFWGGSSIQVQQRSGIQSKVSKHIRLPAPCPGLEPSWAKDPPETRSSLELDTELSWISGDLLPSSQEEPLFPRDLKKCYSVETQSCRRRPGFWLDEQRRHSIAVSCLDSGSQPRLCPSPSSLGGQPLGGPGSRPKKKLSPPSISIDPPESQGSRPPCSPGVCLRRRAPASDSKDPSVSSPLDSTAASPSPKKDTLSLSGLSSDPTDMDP
Protocol: (§1) Cell Culture—INS-1 cells were cultured in RPMI 1640 medium containing 10% FBS, 25 U/ml penicillin, […] streptomycin and 50 μM mercaptoethanol in an atmosphere of 5% CO2 in air, at 37° C. for 2-5 days before recording.
(§2) β-cells Electrophysiological recording—The whole-cell recordings were carried out by the standard “giga-seal” patch clamp technique (Hamill et al.). The whole-cell recording pipettes were made of hemocapillaries (Warner), pulled by a two-stage puller (PC-10, Narishige International, New York, N.Y.), and heat polished with a microforge (MF200-1, World Precision Instruments, Sarasota, Fla.) before use. Pipette resistance was in the range of 2-5 MΩ in the internal solution. The recordings were performed at room temperature (22-25° C.). Currents were recorded using an EPC-9 patch-clamp amplifier (HEKA) and filtered at 2.9 kHz. Data were acquired with Pulse/PulseFit software (HEKA). Voltage-dependent currents were corrected for linear leak and residual capacitance by using an on-line P/n subtraction paradigm.
(§3) Solutions—The extracellular solution used in whole-cell Ca^2+ current recording contained (in mM): 10 CaCl21 110 tetraethylammonium-Cl (TEA-Cl), 10 CsCl, 10 N-2-hydroxyethylpiperazine-N′-2-ethanesulfonic acid (HEPES), 40 sucrose, 0.5 3,4-diaminopyridine, pH 7.3. The intracellular solution contained (in mM): 130 N-methyl-D-glucamine, 20 EGTA (free acid), 5 bis (2-aminophenoxy) ethane-N,N,N′,N′-tetraacetate (BAPTA), 10 HEPES, 6 MgCl2, 4 Ca(OH)2/pH was adjusted to 7.4 with methanesulfonate. 2 mM Mg-ATP was included in the pipette solution to minimize rundown of L-type Ca^2+ currents. For Perforated-patch recording, the extracellular solution contained (in mM): 26 Sucrose, 30 TEA-Cl, 10 HEPES, 5 KCl, 2 CaCl2, MgCl2, pH 7.3. The pipette solution contained (in mM): 65 CsOH, 65 CsMS, 20 sucrose, 10 HEPES, 10 MgCl2, 1 Ca(OH)2, pH 7.4.
(§4) The T-type Ca^2+ current was measured at −30 mV when the membrane was held at −90 mV and the L-type current was measured at +20 mV when the membrane was held at −40 mV. The currents were measured twice at each concentration of mibefradil with 2 min in between measurements.
(§5) A drug diffusing system was then used to test the reversibility of the antagonism of T- and L-type Ca^2+ currents by mibefradil. Small volumes (approximately 2 μl) of drugs were delivered in close proximity to the recording cell with a quartz capillary positioned by a micromanipulator. After administration, drugs diffused throughout the entire recording chamber containing 2 ml of bath solution. This drug diffusing system was used to test the reversibility of 30 μM of NiCl2 on the T-type Ca^2+ currents (FIG. 4).

NIT-1 cells [4] = assay: Spontaneous elevation of [Ca^2+]i in NIT-1 cells, Fluo-3 fluorescent imaging; assay type: cell-based, mouse; details: 10 μM, 3.3 mM glucose, 10 minute observation
Protocol: NIT-1 cells were cultured in medium containing 3.3 mM glucose and preloaded with 2.5 μM Fluo-3 μM. The numbers of spontaneous calcium elevated cells were counted and compared to the total cells being used for a 10 minute observation period. 10 μM NiCl2 inhibited 90% of spontaneous elevation of basal Ca^2+.

INS-1 cells [5] = assay: Transient spontaneous calcium spikes in a single INS-1 cell, epi-fluorescence; assay type: cell-based, rat; details: 30 μM, bath solution without glucose
Source text: The cellular mechanism of the spontaneous elevation of intracellular Ca^2+ was investigated with the epi-fluorescence measurement method. […] The Role of T-type Ca^2+ channels in this spontaneous process was examined as well. […] These spontaneous calcium spikes may contribute to basal insulin secretion and control of basal [Ca^2+]i.

INS-1 cells [6] = assay: Action potentials (excitability) of INS-1 cells; assay type: cell-based, rat; details: 100 μM
Protocol: Particularly, activation of T type Ca^2+ channels will increase the firing frequency of the depolarizing spikes mediated by opening L type Ca^2+ channels (FIG. 19A). Activation of T type Ca^2+ channel will also decrease the time of developing action potential elicited by up-threshold depolarizations (FIG. 19B).
To further establish that T type Ca^2+ current enhances β-cells excitability, 100 μM NiCl2 was administered to effectively block T type Ca^2+ channels.

INS-1 cells [7] = assay: Glucose-induced insulin secretion in INS-1 cells; assay type: cell-based, rat; details: 11.1 mM glucose, variable concentrations of NiCl2
HIT-T15 = assay: Glucose-induced insulin secretion in HIT-T15 cells; assay type: cell-based; details: 11.1 mM glucose, variable concentrations of NiCl2
LVA Ca^2+ current = assay: Cytokine-induced LVA Ca^2+ current in primary cultured mouse islet cells; assay type: cell-based; details: 10 μM; IL-1β 25 U/ml and IFNγ 300 U/ml for 6 h; n=4
Protocol: The effects of chronic cytokine treatment on the voltage-sensitive Ca^2+ currents in primary cultured mouse islet cells was examined. After treatment with IL-1β (25 U/ml) and IFNγ (300 U/ml) for 6 h, an LVA Ca^2+ current was induced in these cells (FIG. 23A). This current was present in 48% of cytokine-treated mouse islet cells. No such current was observed when the cells were treated with either IL-1β or IFNγ alone. […] This LVA current has not been observed in non-treated cells. […] It has been reported that low concentration of NiCl2 selectively block LVA current, a profound […] in Ca^2+ current density was observed over the voltages between −20 and 20 mV.

mouse islet cells = assay: Cytokine-induced increase in basal [Ca^2+]i in primary cultured mouse islet cells; assay type: cell-based; details: 10 μM; IL-1β 25 U/ml and IFNγ 300 U/ml for 6 h
Source text: LVA Ca^2+ channels are activated at low membrane potentials. This unique feature may allow then to regular [Ca^2+]i under nonstimulatory conditions. Indeed, basal [Ca^2+]i in cytokine-treated cells was approximately 3-fold higher than in nontreated cells (FIG. 24A).

β-TC3 cells [8] = assay: Cytokine-induced cell death in β-TC3 cells; assay type: cell-based, mouse; details: NiCl2 20 μM, nifedipine 10 μM; IL-1β 25 U/ml, IFNγ 100 U/ml, TNFα 100 U/ml
Source text: The function of LVA Ca^2+ channels in cytokine-mediated cell death in β-TC3 cells was then examined.

L-type Ca^2+ current = assay: Patch clamp recording (whole-cell and perforated patch) of L-type Ca^2+ current in insulin-secreting (INS-1) cells; assay type: cell-based, rat; details: for effect on L-type Ca^2+ current from inside of cells: 1 μM in the pipette solution, 5 min after patch formation
Protocol: as §1, §2, §3, §4, §5
This hypothesis was tested by applying a very low dose of mibefradil on cells and recording the L-type Ca^2+ currents for a long time in the perforated patch-clamp configuration.

NIT-1 cells [9] = assay: Basal insulin secretion in NIT-1 cells; assay type: cell-based, mouse; details: 5 μM mibefradil, 3 mM glucose
Source text: NIT-1 is a cell line derived from the β-cells of non-obese-diabetic mouse. This cell line expressed high levels of T-type Ca^2+ current.

NIT-1 cells [10] = assay: Cytokine-induced cell death in NIT-1 cells; assay type: cell-based, mouse
[11] = rat; cited from earlier work
T-type Ca^2+ current [12] = details: vascular smooth muscle cells; cited from earlier work
[13] = Mass spectrometric analysis of mibefradil and dm-mibefradil in INS-1 cells
Protocol: Mass Spectrometric Analysis—A VG 70-250 SEQ instrument (VG Analytical, Manchaster, UK) was used with fast atom bombardment (FAB) ionization mode to obtain mass spectra of the mibefradil and dm-mibefradil. Cultured INS-1 cells were treated with 20 μM mibefradil for various lengths of time under each experimental condition. The cell pellets were collected after washing three times with PBS and resuspended in 0.5 ml media for mass spectrometric analysis. For a 50 μl cell sample, 20 μl internal standard solution (40 μM verapamil, MW: 454) and 5 μl glycerol was added, and 4 μl of this mixture was used for FAB-MS. Several positive ion spectra were recorded in the mass range m/z 750-100 at a mass resolution of 1000, and a scan speed of 2 second/decade. For mibefradil, m/z 496 was the dominant ion (M+H)^+ accompanied with a less intense sodiated molecular ion m/z 518. The concentrations of the mibefradil and hydrolyzed mibefradil were obtained by comparing the intensities of m/z 496 and 424 were to the intensity of m/z 455. For calibration, a standard solution of 50 μM drug was subjected to mass spectrometric analysis.
To test the hypothesis that mibefradil may permeate through the cell membrane to the cytoplasm and be trapped inside cells, the presence of mibefradil was examined in cells pre-incubated with 20 μM of mibefradil using mass spectrometry. […] The localization of mibefradil in cells was examined by measuring the concentration of mibefradil in the pellets and supernatants after lysis of the cells.

[14] = 5 mM for 1 hour, followed by 3 hour recovery
[15] = cells pre-incubated with 20 μM mibefradil

SMILES: CN(N=O)C(=O)N[C@H]1C(O)O[C@H](CO)[C@@H](O)[C@@H]1O (mixture of isomers) [streptozotocin]
- calcium influx on stimulation by 50 KCl (INS-1 cells [1]; [14]): reduced calcium influx compared to control cells
- change in basal calcium (INS-1 cells [1]; [14]): two-fold increase in basal calcium

SMILES: N=C(N)NC(=O)c1nc(Cl)c(N)nc1N [amiloride]
- effect on cytokine-induced DNA fragmentation (β-TC3 cells [2]): prevented cytokine-induced DNA fragmentation

SMILES: [Cl][Ni][Cl] [NiCl2]
- amplitude of T-type current after drug delivery, % of initial level (T-type Ca^2+ current [3]; drug diffusing system, about 2 μl of 30 μM delivered near the cell, rapid reduction): 40%
- amplitude of T-type current after recovery, % of initial level (T-type Ca^2+ current [3]; drug diffusing system, about 2 μl of 30 μM, within 3 minutes): 80%
- reversibility of the inhibition of T-type Ca^2+ current (T-type Ca^2+ current [3]; drug diffusing system): reversibly block T type Ca^2+ current
- inhibition of spontaneous elevation of basal Ca^2+ (NIT-1 cells [4]): 90%
- frequency of spontaneous calcium spikes (INS-1 cells [5]): reduced the frequency of spontaneous calcium spikes immediately; also recorded: reduced the frequency of transient spontaneous elevation of [Ca^2+]i
- onset and number of action potentials (INS-1 cells [6]): a delay in the onset of an action potential and a decrease in number of action potentials
- insulin secretion (INS-1 cells [7]): reduced insulin secretion in a dose-dependent manner
- insulin secretion (HIT-T15): not affected
- block of cytokine-induced LVA Ca^2+ current (LVA Ca^2+ current): blocked
- effect on cytokine-induced increase in basal [Ca^2+]i (mouse islet cells): blocked; also recorded: prevented the increase in [Ca^2+]i
- effect on cytokine-induced DNA fragmentation (β-TC3 cells [2]): prevented cytokine-induced DNA fragmentation
- effect on cytokine-induced cell death (β-TC3 cells [8]): effectively reduced the β-cells killing potency of cytokines; also recorded: significantly reduced cell death

SMILES: COCC(=O)O[C@]1(CCN(C)CCCc2nc3ccccc3[nH]2)CCc2cc(F)ccc2[C@@H]1C(C)C [mibefradil, (1S,2S)-2-[2-[[3-(2-Benzimidazolyl)propyl]methyl-amino]ethyl]-6-fluoro-1,2,3,4-tetrahydro-1-isopropyl-2-napthyl methoxy-acetate dihydrochloride]
- long-term effect on the T-type Ca^2+ current (T-type Ca^2+ current [3]; 10 nM, perforated patch): no long-term effect
- block of T-type Ca^2+ current (T-type Ca^2+ current [3]; 1 μM in recording chamber, conventional whole cell patch clamp, dihydrochloride): blocks T- and L-type Ca^2+ current
- effect on T-type Ca^2+ current from inside of cells (T-type Ca^2+ current [3]; 1 μM in the pipette solution, whole-cell, 5 min after patch formation): did not have inhibitory effects
- sensitivity of T-type versus L-type Ca^2+ current (T-type Ca^2+ current [3]; 1 μM, pancreatic β-cells): more sensitive
- reversibility of the inhibition of T-type Ca^2+ current (T-type Ca^2+ current [3]; drug diffusing system, dihydrochloride): clearly reversible; also recorded: reversibly block T type Ca^2+ current
- time dependence of the inhibition of T-type Ca^2+ current (T-type Ca^2+ current [3]; whole-cell patch clamp, bath perfusion): No time-dependent inhibition
- relative L-type Ca^2+ currents (L-type Ca^2+ current; 10 nM mibefradil, after 25 minutes, perforated patch-clamp): 70%
- L-type current densities after incubation (L-type Ca^2+ current; 10 nM mibefradil, two hours incubation, perforated patches): further reduction of current densities
- effect on L-type Ca^2+ current from inside of cells (L-type Ca^2+ current; whole-cell): did not have inhibitory effects
- L-type Ca^2+ current, % of the beginning amplitude (L-type Ca^2+ current; 1 μM mibefradil, after 10 minutes, whole-cell, n=4): up to 70%
- block of L-type Ca^2+ current (L-type Ca^2+ current; 1 μM, INS-1 cells): blocks T- and L-type Ca^2+ current
- reversibility of the inhibition of L-type Ca^2+ current (L-type Ca^2+ current; drug diffusing system, perforated patch): poorly reversible
- effect on basal [Ca^2+]i (INS-1 cells [1]; 1 μM, single INS-1 cell with basal [Ca^2+]i near 150 nM, no glucose, dihydrochloride): immediately lowered the basal calcium; also recorded: reduced basal [Ca^2+]i
- basal insulin secretion relative to control (NIT-1 cells [9]): less than 40
- effect on cytokine-induced DNA fragmentation (β-TC3 cells [2]): prevented cytokine-induced DNA fragmentation
- effect on cytokine-induced cell death (NIT-1 cells [10]): reduced β-cells death induced by cytokines
- effect on development of hyperinsulinemia [11]: prevented and reversed development of hyperinsulinemia
- inhibitory effect on T-type Ca^2+ current (T-type Ca^2+ current [12]): potent inhibitory effect
- concentration of intracellular mibefradil ([13]; cells incubated with 20 μM mibefradil for one minute, 3 washes, n=3): 3.18 ± 0.78 µM
- share of mibefradil detected in the supernatants after lysis of the cells [13, 15]: 92%
- share of mibefradil found in the pellets after washing with methanol [13, 15]: 0%

SMILES: CC(C)[C@H]1c2ccc(F)cc2CC[C@]1(O)CCN(C)CCCc1nc2ccccc2[nH]1.Cl [dm-mibefradil, (1S,2S)-2-[2-[[3-(2-Benzimidazolyl)propyl]methylamino]ethyl]-6-fluoro-1,2,3,4-tetrahydro-1-isopropyl-2-napthyl hydroxy hydrochloride]
- effect on L-type Ca^2+ current from inside of cells (L-type Ca^2+ current; whole-cell): specifically blocked

From patent US20030125269A1, “T-TYPE CALCIUM CHANNEL” (priority 1998, published 2003)
